Experimental data published in publication PMC3192011 (Journal of medicinal chemistry, 2009).
Where “and” joins values, the source holds several entries; their conditions need not be identical. Equal values may be shown once. Entries after “also recorded” stand apart in the source; their conditions may differ. Read-outs that look alike come from different tables or passages of the source. One block for each compound: values may come before it.

Columns and labels:
[1] = biological target: T1, mGlu5 (Rattus norvegicus, UniProt P31424); details: cited from earlier work
T1 sequence (P31424 21-1203): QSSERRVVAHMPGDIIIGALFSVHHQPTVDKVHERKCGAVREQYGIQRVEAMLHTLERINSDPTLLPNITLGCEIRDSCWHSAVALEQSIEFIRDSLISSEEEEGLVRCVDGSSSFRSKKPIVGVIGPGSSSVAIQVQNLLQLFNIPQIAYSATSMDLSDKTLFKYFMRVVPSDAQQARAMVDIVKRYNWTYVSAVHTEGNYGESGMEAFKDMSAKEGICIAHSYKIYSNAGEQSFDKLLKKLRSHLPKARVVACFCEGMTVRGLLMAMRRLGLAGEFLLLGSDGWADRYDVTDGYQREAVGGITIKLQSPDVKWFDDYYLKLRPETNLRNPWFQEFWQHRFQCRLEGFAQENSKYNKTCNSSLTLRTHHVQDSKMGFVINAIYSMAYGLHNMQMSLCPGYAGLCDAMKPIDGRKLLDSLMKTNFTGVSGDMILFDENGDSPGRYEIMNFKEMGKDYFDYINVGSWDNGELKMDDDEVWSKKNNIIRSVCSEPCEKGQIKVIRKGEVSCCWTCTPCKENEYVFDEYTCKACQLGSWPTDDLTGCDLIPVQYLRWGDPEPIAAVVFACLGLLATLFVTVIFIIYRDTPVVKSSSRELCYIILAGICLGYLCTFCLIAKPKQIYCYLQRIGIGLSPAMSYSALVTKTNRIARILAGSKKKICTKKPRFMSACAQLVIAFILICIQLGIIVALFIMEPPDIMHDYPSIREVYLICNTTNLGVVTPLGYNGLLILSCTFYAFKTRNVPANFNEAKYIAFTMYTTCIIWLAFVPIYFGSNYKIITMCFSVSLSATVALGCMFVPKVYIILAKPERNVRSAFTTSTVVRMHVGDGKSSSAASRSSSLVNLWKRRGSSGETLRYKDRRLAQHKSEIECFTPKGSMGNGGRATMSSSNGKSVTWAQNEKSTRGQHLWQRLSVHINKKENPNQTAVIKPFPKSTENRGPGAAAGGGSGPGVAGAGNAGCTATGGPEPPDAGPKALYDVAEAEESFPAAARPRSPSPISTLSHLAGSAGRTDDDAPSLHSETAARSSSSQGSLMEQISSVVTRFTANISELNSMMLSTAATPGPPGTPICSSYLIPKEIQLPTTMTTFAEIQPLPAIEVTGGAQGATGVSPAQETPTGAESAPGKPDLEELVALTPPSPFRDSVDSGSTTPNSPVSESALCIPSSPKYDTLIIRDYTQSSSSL

[2] = biological target: T1, mGlu5; experiment: mGlu5 cell-based in vitro functional assay; details: for IC50/EC50 (nM): IC50: NAM; for IC50/EC50 (nM): IC50 / IC50/EC50 (nM): EC50: average of at least three independent determinations; for IC50/EC50 (nM): EC50: PAM, potentiation in the presence of glutamate EC20
[3] = system: amphetamine-induced hyperlocomotion in rats; details: cited from earlier work
[4] = system: amphetamine-induced hyperlocomotion in rats; experiment: Reversal of amphetamine-induced hyperlocomotion; assay type: in vivo
[5] = biological target: mGlu1 (Homo sapiens, UniProt Q13255); experiment: mGlu selectivity, mGlu1; assay type: cell-based
[6] = biological target: mGlu2 (Homo sapiens, UniProt Q14416); experiment: mGlu selectivity, mGlu2; assay type: cell-based
[7] = biological target: mGlu3 (Homo sapiens, UniProt Q14832); experiment: mGlu selectivity, mGlu3; assay type: cell-based
Chain of mGlu3 (Q14832 23-879): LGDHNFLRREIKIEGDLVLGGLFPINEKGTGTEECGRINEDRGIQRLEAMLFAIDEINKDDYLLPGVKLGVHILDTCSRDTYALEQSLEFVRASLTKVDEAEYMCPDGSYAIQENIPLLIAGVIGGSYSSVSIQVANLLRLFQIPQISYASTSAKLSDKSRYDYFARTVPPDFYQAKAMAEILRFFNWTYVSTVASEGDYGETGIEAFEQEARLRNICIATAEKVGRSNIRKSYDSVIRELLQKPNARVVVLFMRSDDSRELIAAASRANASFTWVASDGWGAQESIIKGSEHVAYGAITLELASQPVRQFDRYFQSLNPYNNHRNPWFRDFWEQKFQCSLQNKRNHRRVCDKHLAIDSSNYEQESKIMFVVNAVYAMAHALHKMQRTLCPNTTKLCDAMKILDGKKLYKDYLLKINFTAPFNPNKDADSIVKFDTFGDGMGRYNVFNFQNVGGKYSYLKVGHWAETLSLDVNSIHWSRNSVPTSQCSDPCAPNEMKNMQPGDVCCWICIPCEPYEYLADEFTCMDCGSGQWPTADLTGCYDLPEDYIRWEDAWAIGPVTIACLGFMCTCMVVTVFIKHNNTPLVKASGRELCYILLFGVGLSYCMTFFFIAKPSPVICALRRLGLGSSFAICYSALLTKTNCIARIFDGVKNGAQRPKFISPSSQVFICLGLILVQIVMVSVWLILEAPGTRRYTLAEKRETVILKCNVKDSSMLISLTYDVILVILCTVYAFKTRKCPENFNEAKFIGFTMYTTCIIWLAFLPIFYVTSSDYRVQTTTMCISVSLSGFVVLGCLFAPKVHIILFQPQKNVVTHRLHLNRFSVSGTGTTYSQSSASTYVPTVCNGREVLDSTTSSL

[8] = biological target: mGlu4 (Homo sapiens, UniProt Q14833); experiment: mGlu selectivity, mGlu4; assay type: cell-based
Chain of mGlu4 (Q14833 33-912): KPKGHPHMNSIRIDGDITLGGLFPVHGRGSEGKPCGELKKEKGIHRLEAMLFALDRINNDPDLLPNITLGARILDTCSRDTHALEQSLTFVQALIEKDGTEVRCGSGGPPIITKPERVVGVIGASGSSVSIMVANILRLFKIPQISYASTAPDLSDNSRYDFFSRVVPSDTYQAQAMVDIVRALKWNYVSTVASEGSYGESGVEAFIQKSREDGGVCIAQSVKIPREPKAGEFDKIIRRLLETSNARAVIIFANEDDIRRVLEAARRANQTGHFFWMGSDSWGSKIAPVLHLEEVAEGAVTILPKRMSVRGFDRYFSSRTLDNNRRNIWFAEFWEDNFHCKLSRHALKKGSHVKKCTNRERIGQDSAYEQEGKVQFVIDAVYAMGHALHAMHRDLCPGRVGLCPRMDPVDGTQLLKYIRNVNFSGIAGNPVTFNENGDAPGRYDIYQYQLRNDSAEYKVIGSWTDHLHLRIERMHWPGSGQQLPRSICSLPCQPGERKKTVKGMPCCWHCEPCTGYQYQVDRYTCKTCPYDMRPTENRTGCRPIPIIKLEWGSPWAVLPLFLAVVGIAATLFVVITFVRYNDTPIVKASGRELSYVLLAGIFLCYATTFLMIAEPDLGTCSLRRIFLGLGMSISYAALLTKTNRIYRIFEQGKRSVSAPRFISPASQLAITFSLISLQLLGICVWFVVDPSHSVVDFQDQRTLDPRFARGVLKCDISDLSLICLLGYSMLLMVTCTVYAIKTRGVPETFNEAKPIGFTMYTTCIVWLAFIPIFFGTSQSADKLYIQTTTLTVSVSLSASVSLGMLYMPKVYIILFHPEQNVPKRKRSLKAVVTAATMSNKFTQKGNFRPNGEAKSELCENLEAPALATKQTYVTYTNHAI

[9] = biological target: mGlu7 (Homo sapiens, UniProt Q14831); experiment: mGlu selectivity, mGlu7; assay type: cell-based
Chain of mGlu7 (Q14831 35-915): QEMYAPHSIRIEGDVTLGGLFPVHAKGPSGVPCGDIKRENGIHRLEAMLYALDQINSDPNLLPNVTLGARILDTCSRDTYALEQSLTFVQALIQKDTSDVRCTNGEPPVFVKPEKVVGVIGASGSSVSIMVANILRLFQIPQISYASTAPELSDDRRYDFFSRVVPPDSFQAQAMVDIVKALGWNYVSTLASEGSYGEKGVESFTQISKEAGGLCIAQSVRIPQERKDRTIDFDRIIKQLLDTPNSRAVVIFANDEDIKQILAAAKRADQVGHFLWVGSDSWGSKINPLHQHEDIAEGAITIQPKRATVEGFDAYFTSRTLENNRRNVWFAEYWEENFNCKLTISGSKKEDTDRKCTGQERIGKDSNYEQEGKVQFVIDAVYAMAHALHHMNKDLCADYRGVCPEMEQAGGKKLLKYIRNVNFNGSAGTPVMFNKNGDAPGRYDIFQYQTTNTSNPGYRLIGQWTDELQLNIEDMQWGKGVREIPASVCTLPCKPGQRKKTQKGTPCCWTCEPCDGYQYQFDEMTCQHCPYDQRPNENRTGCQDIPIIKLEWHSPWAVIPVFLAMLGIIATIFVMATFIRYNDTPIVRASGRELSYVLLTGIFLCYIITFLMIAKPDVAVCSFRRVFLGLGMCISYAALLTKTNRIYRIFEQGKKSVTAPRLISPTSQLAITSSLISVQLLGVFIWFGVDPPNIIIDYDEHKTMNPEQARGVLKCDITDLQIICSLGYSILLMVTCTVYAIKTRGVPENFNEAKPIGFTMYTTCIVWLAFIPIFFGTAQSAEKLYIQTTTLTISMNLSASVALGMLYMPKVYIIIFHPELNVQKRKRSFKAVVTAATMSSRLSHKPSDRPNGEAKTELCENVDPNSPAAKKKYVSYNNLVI

[10] = biological target: mGlu8 (Homo sapiens, UniProt O00222); experiment: mGlu selectivity, mGlu8; assay type: cell-based
Chain of mGlu8 (O00222 34-908): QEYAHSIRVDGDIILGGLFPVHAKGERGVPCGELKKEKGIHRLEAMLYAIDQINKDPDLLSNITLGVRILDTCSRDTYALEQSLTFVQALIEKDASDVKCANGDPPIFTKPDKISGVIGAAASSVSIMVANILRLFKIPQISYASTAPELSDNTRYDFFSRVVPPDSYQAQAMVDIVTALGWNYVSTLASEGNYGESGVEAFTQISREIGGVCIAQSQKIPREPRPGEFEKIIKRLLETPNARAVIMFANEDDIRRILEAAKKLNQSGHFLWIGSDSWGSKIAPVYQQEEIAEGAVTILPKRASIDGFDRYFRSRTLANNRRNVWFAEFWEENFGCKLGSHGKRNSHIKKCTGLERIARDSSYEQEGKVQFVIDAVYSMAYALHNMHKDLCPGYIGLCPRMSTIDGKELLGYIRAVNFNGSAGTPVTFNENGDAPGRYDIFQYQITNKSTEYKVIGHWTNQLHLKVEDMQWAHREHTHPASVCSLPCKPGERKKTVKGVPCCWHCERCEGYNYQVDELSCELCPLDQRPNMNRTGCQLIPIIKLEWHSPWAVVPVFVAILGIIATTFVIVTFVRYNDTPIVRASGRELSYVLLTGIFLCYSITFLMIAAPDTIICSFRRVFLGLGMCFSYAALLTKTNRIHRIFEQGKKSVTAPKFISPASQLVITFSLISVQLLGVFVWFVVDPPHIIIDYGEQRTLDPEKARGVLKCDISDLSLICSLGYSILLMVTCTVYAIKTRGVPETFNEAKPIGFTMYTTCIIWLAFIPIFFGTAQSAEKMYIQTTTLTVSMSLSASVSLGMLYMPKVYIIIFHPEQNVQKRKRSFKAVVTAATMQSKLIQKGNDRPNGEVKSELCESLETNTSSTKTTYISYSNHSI

[11] = system: punished responding; experiment: Modified Geller-Seifter conflict model; assay type: in vivo, rodent; details: 1, 3, 10, 30 mg/kg

SMILES: Cc1ccc(C#Cc2cncnc2)cc1 [compound 10]
IC50/EC50 (nM): EC50 ([1]; PAM, table value of earlier compound): 3,300±290 nM
Fold Shift ([1]; mGlu5 PAM): 4.2 fold
efficacy, % of glutamate max ([1]; mGlu5 PAM): 99%

IC50/EC50 (nM): IC50 [2]: 21 nM
SMILES: CCOc1ncc(C#Cc2cccc(C)c2)cn1 [16a]

SMILES: O=C(c1ccc(F)cc1)N1CCC[C@H](c2nc(-c3ccc(F)cc3)no2)C1 [compound 7, reference compound]
mode of mGlu5 pharmacology in words [1]: ago-potentiators
efficacy in amphetamine-induced hyperlocomotion model [3]: robust efficacy

IC50/EC50 (nM): EC50 [2]: 247 nM
SMILES: CC(C)(C)c1ncc(C#Cc2ccccc2)cn1 [16e]

IC50/EC50 (nM): EC50 [2]: 21.1 nM and 21 nM
SMILES: CNc1ncc(C#Cc2cccc(C)c2)cn1 [16c]

mGlu5 activity in words [2]: weak mGlu5 PAM
SMILES: CNc1ncc(C#Cc2ccc(C)cc2)cn1 [16f]

SMILES: N#Cc1cccc(C(=O)Nc2cc(-c3ccccc3)nn2-c2ccccc2)c1 [compound 6, reference compound]
mode of mGlu5 pharmacology in words [1]: ago-potentiators
efficacy in amphetamine-induced hyperlocomotion model [3]: robust efficacy

mGlu5 activity in words [2]: inactive
SMILES: Cc1ccc(C#Cc2ncccn2)cc1 [17c]

mGlu5 activity in words [2]: pure mGlu5 PAM
IC50/EC50 (nM): EC50 [2]: 14.3 nM
activity in the absence of glutamate (agonism) ([2]; no glutamate): does not activate mGlu5
SMILES: CNc1ncc(C#Cc2ccccc2)cn1 [16b]
reversal of amphetamine-induced hyperlocomotion ([4]; i.p. 3, 10 or 30 mg/kg thirty minutes prior to s.c. 1 mg/kg amphetamine, vehicle 10% Tween 80): significant reversal noted at the 30 mg/kg dose; also recorded: dose-dependent manner
effect of compound/vehicle alone on locomotion (sedation) ([4]; without amphetamine): no effect

IC50/EC50 (nM): IC50 [2]: 10.8 ± 2.7 nM
selectivity vs. mGlu1 [5]: > 10 µM
selectivity vs. mGlu2 [6]: > 10 µM
selectivity vs. mGlu3 [7]: > 10 µM
selectivity vs. mGlu4 [8]: > 10 µM
selectivity vs. mGlu7 [9]: > 10 µM
selectivity vs. mGlu8 [10]: > 10 µM
SMILES: Cc1cccc(C#Cc2ncccn2)c1 [17b]
unpunished responding [11]: no significant effect on unpunished responding; also recorded: did not change significantly at any of the doses tested
punished responding vs vehicle ([11]; p < 0.05 Newman-Keul): both the 10 and 30 mg/kg doses in the punished component of the schedule differed significantly from vehicle; also recorded: significantly greater number of responses than animals tested on vehicle

IC50/EC50 (nM): EC50 [2]: 120 nM
SMILES: CSc1ncc(C#Cc2ccccc2)cn1 [16d]
